Results from patent US10758534B2 (Vertex Pharmaceuticals Incorporated, priority 2014, dated 2020).
Like-named read-outs stand apart in the source and are kept apart here.

Biological target: T1, F508del (Homo sapiens, UniProt P13569, DEL508-508)
T1 construct: expressed in transfected cells
Assay: Protocol 2: FRET membrane potential optical assay (VIPR), identification of correction compounds
Type: cell-based
Outline: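 Correction of the F508del trafficking defect is scored as forskolin (10 μM)/genistein (20 μM)-stimulated Cl^− efflux in NIH3T3 mouse fibroblasts after a 16 hr, 37° C. compound exposure. Depolarization was followed optically using voltage-sensing FRET dyes.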

[1] = Table 3, compounds of Table 1 as modulators of CFTR activity, protocol not stated
[2] = F508del CFTR modulator activity, compounds of Table 1, read-out: EC30

T1 sequence (P13569 with tags, fused parts or gaps DEL508-508): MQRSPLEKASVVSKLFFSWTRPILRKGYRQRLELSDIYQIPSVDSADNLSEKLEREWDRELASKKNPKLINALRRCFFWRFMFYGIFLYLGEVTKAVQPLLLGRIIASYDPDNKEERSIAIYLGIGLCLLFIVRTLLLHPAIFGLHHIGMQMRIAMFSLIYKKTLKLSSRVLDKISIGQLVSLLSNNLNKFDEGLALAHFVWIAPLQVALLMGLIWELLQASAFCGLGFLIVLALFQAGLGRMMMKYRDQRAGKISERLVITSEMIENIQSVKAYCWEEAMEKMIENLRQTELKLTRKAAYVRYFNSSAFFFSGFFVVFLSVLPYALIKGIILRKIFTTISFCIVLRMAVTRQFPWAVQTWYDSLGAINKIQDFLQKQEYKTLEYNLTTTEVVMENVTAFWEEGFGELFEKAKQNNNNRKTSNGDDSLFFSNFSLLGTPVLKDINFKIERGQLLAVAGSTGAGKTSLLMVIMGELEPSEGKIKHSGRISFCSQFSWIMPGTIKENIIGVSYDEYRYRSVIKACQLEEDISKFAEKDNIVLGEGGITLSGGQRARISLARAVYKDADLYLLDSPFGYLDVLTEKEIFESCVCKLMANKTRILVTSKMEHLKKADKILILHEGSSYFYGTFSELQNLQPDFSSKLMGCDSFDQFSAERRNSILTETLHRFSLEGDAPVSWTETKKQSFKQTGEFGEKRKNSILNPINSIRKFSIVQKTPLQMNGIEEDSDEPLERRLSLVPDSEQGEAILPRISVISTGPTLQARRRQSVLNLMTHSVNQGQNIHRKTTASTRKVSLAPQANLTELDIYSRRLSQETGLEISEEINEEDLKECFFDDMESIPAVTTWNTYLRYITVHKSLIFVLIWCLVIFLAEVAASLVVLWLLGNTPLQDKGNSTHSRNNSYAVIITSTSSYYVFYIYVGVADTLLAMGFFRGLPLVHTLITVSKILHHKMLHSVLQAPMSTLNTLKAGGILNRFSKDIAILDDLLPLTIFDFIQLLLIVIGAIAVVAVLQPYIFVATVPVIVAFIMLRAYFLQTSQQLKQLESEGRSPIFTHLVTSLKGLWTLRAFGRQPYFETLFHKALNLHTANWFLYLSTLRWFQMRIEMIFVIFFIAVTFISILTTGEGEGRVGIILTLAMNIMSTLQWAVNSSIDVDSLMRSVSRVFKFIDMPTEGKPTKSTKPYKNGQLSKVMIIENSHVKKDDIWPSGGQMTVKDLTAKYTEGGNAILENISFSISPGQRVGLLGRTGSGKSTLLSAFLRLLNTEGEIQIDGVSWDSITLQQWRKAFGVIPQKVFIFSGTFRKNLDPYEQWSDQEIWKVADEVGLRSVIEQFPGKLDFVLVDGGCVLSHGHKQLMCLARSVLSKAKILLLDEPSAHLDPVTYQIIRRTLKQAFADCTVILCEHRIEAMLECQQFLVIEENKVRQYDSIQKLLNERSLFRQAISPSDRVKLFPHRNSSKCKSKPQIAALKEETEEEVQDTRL

Row | EC30 [1] | EC30 [2] [nM] | Structure (SMILES)
1 |  | < 3000 | COc1cc(F)cc(-c2cnc(N3CC(C)CC3(C)C)c(C(=O)NS(=O)(=O)c3cccc(N)n3)c2)c1 (stereo not shown) [Compound 2431, N-[(6-amino-2-pyridyl)sulfonyl]-5-(3-fluoro-5-methoxy-phenyl)-2-(2,2,4-trimethylpyrrolidin-1-yl)pyridine-3-carboxamide]
2 |  | 3000 to 10000 | CC1CN(c2ncccc2C(=O)NS(=O)(=O)c2cccc(NC3CC3)n2)C(C)(C)C1 (stereo not shown) [Compound 2574, N—[[6-(cyclopropylamino)-2-pyridyl]sulfonyl]-2-(2,2,4-trimethylpyrrolidin-1-yl)pyridine-3-carboxamide]
3 |  | < 3000 | COc1ccc(-c2ccc(C(=O)NS(=O)(=O)c3ccc[nH]c3=O)c(N3C[C@@H](C)CC3(C)C)n2)c(F)c1F [Compound 2567, 6-(2,3-difluoro-4-methoxy-phenyl)-N-[(2-oxo-1H-pyridin-3-yl)sulfonyl]-2-[(4S)-2,2,4-trimethylpyrrolidin-1-yl]pyridine-3-carboxamide]
4 |  | < 3000 | C[C@@H]1CN(c2nc(-c3ccc(F)c(F)c3)ccc2C(=O)NS(=O)(=O)c2cccc(N)n2)C(C)(C)C1 [Compound 2559, N-[(6-amino-2-pyridyl)sulfonyl]-6-(3,4-difluorophenyl)-2-[(4S)-2,2,4-trimethylpyrrolidin-1-yl]pyridine-3-carboxamide]
5 |  | < 3000 | Cc1ccc(-c2ccc(C(=O)NS(=O)(=O)c3ccc[nH]c3=O)c(N3C[C@@H](C)CC3(C)C)n2)cc1 [Compound 2438, N-[(2-oxo-1H-pyridin-3-yl)sulfonyl]-6-(p-tolyl)-2-[(4S)-2,2,4-trimethylpyrrolidin-1-yl]pyridine-3-carboxamide]
6 |  | < 3000 | CC1CN(c2ncccc2C(=O)NS(=O)(=O)c2cccc(OCc3cccc(C#N)c3)n2)C(C)(C)C1 (stereo not shown) [Compound 2299, N—[[6-[(3-cyanophenyl)methoxy]-2-pyridyl]sulfonyl]-2-(2,2,4-trimethylpyrrolidin-1-yl)pyridine-3-carboxamide]
7 |  | < 3000 | C[C@@H]1CN(c2nc(-n3ccc(C4CC4)n3)ccc2C(=O)NS(=O)(=O)c2cccnc2N)C(C)(C)C1 [Compound 2695]
8 |  | 3000 to 10000 | CC1CN(c2ncccc2C(=O)NS(=O)(=O)c2cccc(NCC(F)F)n2)C(C)(C)C1 (stereo not shown) [Compound 2350, N—[[6-(2,2-difluoroethylamino)-2-pyridyl]sulfonyl]-2-(2,2,4-trimethylpyrrolidin-1-yl)pyridine-3-carboxamide]
9 |  | < 3000 | CC1CN(c2ncccc2C(=O)NS(=O)(=O)c2cccc(OCc3cc(F)cc(F)c3)n2)C(C)(C)C1 (stereo not shown) [Compound 2462, N—[[6-[(3,5-difluorophenyl)methoxy]-2-pyridyl]sulfonyl]-2-(2,2,4-trimethylpyrrolidin-1-yl)pyridine-3-carboxamide]
10 |  | < 3000 | CC(C)Oc1ccccc1-c1ccc(C(=O)NS(=O)(=O)c2ccc[nH]c2=O)c(N2C[C@@H](C)CC2(C)C)n1 [Compound 2541, 6-(2-isopropoxyphenyl)-N-[(2-oxo-1H-pyridin-3-yl)sulfonyl]-2-[(4S)-2,2,4-trimethylpyrrolidin-1-yl]pyridine-3-carboxamide]
11 |  | 3000 to 10000 | CC1CN(c2ncccc2C(=O)NS(=O)(=O)c2cccc(Oc3cccc4cccnc34)n2)C(C)(C)C1 (stereo not shown) [Compound 2333, N—[[6-(8-quinolyloxy)-2-pyridyl]sulfonyl]-2-(2,2,4-trimethylpyrrolidin-1-yl)pyridine-3-carboxamide]
12 |  | < 3000 | C[C@@H]1CN(c2nc(-c3ccc4c(ccn4C)c3)ccc2C(=O)NS(=O)(=O)c2cccnc2N)C(C)(C)C1 [Compound 2352, N-[(2-amino-3-pyridyl)sulfonyl]-6-(1-methylindol-5-yl)-2-[(4S)-2,2,4-trimethylpyrrolidin-1-yl]pyridine-3-carboxamide]

The next lines start with the compound.

Row | Structure (SMILES) | EC30 [1] | EC30 [2] [nM]
13 | COc1ncccc1S(=O)(=O)NC(=O)c1cc2cc(C)ccc2n1Cc1c(C)cc(C)cc1C [Compound 267, N-[(2-methoxy-3-pyridyl)sulfonyl]-5-methyl-1-[(2,4,6-trimethylphenyl)methyl]indole-2-carboxamide] | +++ (“+++” means <3 uM) | 
14 | CC(C)COc1cc(F)cc(-c2ccc(C(=O)NS(=O)(=O)c3cccc(N)n3)c(N3CCCC3C3CC3)n2)c1 (stereo not shown) [Compound 593, N-[(6-amino-2-pyridyl)sulfonyl]-2-(2-cyclopropylpyrrolidin-1-yl)-6-(3-fluoro-5-isobutoxy-phenyl)pyridine-3-carboxamide] | +++ (“+++” means <3 uM) | 
15 | CCC1(COc2nc(-c3cc(F)cc(OCC(C)C)c3)ccc2C(=O)NS(=O)(=O)c2cccc(N)n2)COC1 [Compound 618, N-[(6-amino-2-pyridyl)sulfonyl]-2-[(3-ethyloxetane-3-yl)methoxy]-6-(3-fluoro-5-isobutoxy-phenyl)pyridine-3-carboxamide] | ++ (“++” means between 3 uM and 10 uM) | 
16 | CC(C)COc1cc(F)cc(-c2ccc(C(=O)NS(=O)(=O)c3ccn[nH]3)c(NCC3CC(F)(F)C3)n2)c1 [Compound 393, 2-[(3,3-difluorocyclobutyl)methylamino]-6-(3-fluoro-5-isobutoxy-phenyl)-N-(1H-pyrazol-5-ylsulfonyl)pyridine-3-carboxamide] | ++ (“++” means between 3 uM and 10 uM) | 
17 | CC(C)Oc1ccc(-c2ccc(C(=O)NS(=O)(=O)c3cccc(N)n3)c(N3CC4CCC3C4)n2)cn1 (stereo not shown) [Compound 521, N-[(6-amino-2-pyridyl)sulfonyl]-2-(3-azabicyclo[2.2.1]heptan-3-yl)-6-(6-isopropoxy-3-pyridyl)pyridine-3-carboxamide] | ++ (“++” means between 3 uM and 10 uM) | 
18 | CC(Oc1nc(C(C)(C)C)ccc1C(=O)NS(=O)(=O)c1cccc(N)c1)c1ccccc1 (stereo not shown) [Compound 219, N-(3-aminophenyl)sulfonyl-6-tert-butyl-2-(1-phenylethoxy)pyridine-3-carboxamide] | +++ (“+++” means <3 uM) | 
19 | Cc1ccccc1-c1ccc(C(=O)NS(=O)(=O)c2cccc(N)n2)c(N2CC(C)CC2(C)C)n1 (stereo not shown) [Compound 761, N-[(6-amino-2-pyridyl)sulfonyl]-6-(o-tolyl)-2-(2,2,4-trimethylpyrrolidin-1-yl)pyridine-3-carboxamide] | +++ (“+++” means <3 uM) | 
20 | Cc1cc(C)c(Cn2c(C(=O)NS(=O)(=O)c3cccc(N)c3)cc3c(Cl)cccc32)c(C)c1 [Compound 362, N-(3-aminophenyl)sulfonyl-4-chloro-1-[(2,4,6-trimethylphenyl)methyl]indole-2-carboxamide] | +++ (“+++” means <3 uM) | 
21 | CC1CN(c2ncccc2C(=O)NS(=O)(=O)c2cccc(N3CCN(Cc4ccncc4)CC3)n2)C(C)(C)C1 (stereo not shown) [Compound 2175, N—[[6-[4-(4-pyridylmethyl)piperazin-1-yl]-2-pyridyl]sulfonyl]-2-(2,2,4-trimethylpyrrolidin-1-yl)pyridine-3-carboxamide] |  | 3000 to 10000
22 | COc1cc2cc(C(=O)NS(=O)(=O)c3ccccc3)n(Cc3c(C)cc(C)cc3C)c2cc1OC [Compound 198, N-(benzenesulfonyl)-5,6-dimethoxy-1-[(2,4,6-trimethylphenyl)methyl]indole-2-carboxamide] | +++ (“+++” means <3 uM) | 
23 | CCCc1ccccc1-c1cnc(Oc2c(C)cc(C)cc2C)c(C(=O)NS(=O)(=O)c2cccc(N)n2)c1 [Compound 429, N-[(6-amino-2-pyridyl)sulfonyl]-5-(2-propylphenyl)-2-(2,4,6-trimethylphenoxy)pyridine-3-carboxamide] | +++ (“+++” means <3 uM) | 
24 | CC(C)COc1cc(F)cc(-c2ccc(C(=O)NS(=O)(=O)C3CCNC3=O)c(N3CC(C)CC3(C)C)n2)c1 (stereo not shown) [Compound 466, 6-(3-fluoro-5-isobutoxy-phenyl)-N-(2-oxopyrrolidin-3-yl)sulfonyl-2-(2,2,4-trimethylpyrrolidin-1-yl)pyridine-3-carboxamide] | +++ (“+++” means <3 uM) | 
25 | Cc1cc(C)c(Oc2nc(-c3ccccc3C(C)(C)C)ccc2C(=O)NS(=O)(=O)c2cccc(N)n2)c(C)c1 [Compound 364, N-[(6-amino-2-pyridyl)sulfonyl]-6-(2-tert-butylphenyl)-2-(2,4,6-trimethylphenoxy)pyridine-3-carboxamide] | +-F+ | 
26 | CC(C)Cn1cc(-c2ccc(C(=O)NS(=O)(=O)c3cccnc3N)c(N3C[C@@H](C)CC3(C)C)n2)cn1 [Compound 2231, N-[(2-amino-3-pyridyl)sulfonyl]-6-(1-isobutylpyrazol-4-yl)-2-[(4S)-2,2,4-trimethylpyrrolidin-1-yl]pyridine-3-carboxamide] |  | < 3000
27 | COc1ccc(-c2ccc(C(=O)NS(=O)(=O)c3cccnc3N)c(N3C[C@@H](C)CC3(C)C)n2)c(OC)n1 [Compound 2091, N-[(2-amino-3-pyridyl)sulfonyl]-6-(2,6-dimethoxy-3-pyridyl)-2-[(4S)-2,2,4-trimethylpyrrolidin-1-yl]pyridine-3-carboxamide] |  | < 3000
28 | C[C@@H]1CN(c2nc(-c3ccc4[nH]ccc4c3)ccc2C(=O)NS(=O)(=O)c2cccnc2N)C(C)(C)C1 [Compound 2125, N-[(2-amino-3-pyridyl)sulfonyl]-6-(1H-indol-5-yl)-2-[(4S)-2,2,4-trimethylpyrrolidin-1-yl]pyridine-3-carboxamide] |  | < 3000
29 | CC(C)COc1cc(F)cc(-c2ccc(C(=O)NS(=O)(=O)c3cccc(N)n3)c(N3CC(C)CC(C)(C)C3)n2)c1 (stereo not shown) [Compound 560, N-[(6-amino-2-pyridyl)sulfonyl]-6-(3-fluoro-5-isobutoxy-phenyl)-2-(3,3,5-trimethyl-1-piperidyl)pyridine-3-carboxamide] | +++ (“+++” means <3 uM) | 
30 | CCOC(=O)N1CCC(Nc2cccc(S(=O)(=O)NC(=O)c3cccnc3N3CC(C)CC3(C)C)n2)CC1 (stereo not shown) [Compound 2253, ethyl 4-[[6-[[2-(2,2,4-trimethylpyrrolidin-1-yl)pyridine-3-carbonyl]sulfamoyl]-2-pyridyl]amino]piperidine-1-carboxylate] |  | 3000 to 10000
31 | COc1ncc(-c2ccc(C(=O)NS(=O)(=O)c3cccc(N)n3)c(Oc3ccc(C)cc3C)n2)cc1C [Compound 533, N-[(6-amino-2-pyridyl)sulfonyl]-2-(2,4-dimethylphenoxy)-6-(6-methoxy-5-methyl-3-pyridyl)pyridine-3-carboxamide] | +++ (“+++” means <3 uM) | 
